Melting point data for 90 compounds are collected here from a melting point compilation (Tetko et al.; mined from patent text by program, amines drawn as free bases though some values may be those of a salt).

For `CN(C)Cc1nnc(CN(C)C)n1-c1ccc(Cl)cc1C(=O)c1ccccc1`, the melting point (in general, the temperature of the solid-liquid transition) lay within 148 to 152 °C. The same measure for `CSc1cc(-c2nc3ccccc3[nH]2)no1`: 179 to 181 °C.

Compound `COc1ccccc1NC(=O)c1ccc(COC2CCCCO2)cc1` (stereo not given) had a melting point of 67 to 70 °C.

`CCOC(=O)c1cn(CC)c2ncnn2c1=O` registered a melting point of 129 to 131 °C. To `CCNc1nnc(-c2ccc3ncn(-c4ccc(SC)cc4)c3c2)o1` belongs 226 to 227 °C.

Take `C[C@H]1CN(C(c2ccccc2)(c2ccccc2)c2ccccc2)CCN1c1ccc(C(F)(F)F)c(Cl)n1`: the melting point was 210 °C.

In turn, `O=C(Oc1ccccc1)N1CCC2(CC1)SC(c1cccc(F)c1)c1ccccc12` (stereo not given) had a melting point of 134 to 142 °C. `CS(=O)(=O)c1ccc(-c2nn(CC3CC3)c(=O)cc2-c2ccc(F)cc2)cc1` came in with a melting point of 124 °C. Compound `Brc1ccc2c(c1)OC(c1ccccc1)(c1ccccc1)O2` showed a melting point of 88 to 89 °C. The same measure for `CCCCCCCCCCCCCCCCCCOc1cc(OCCCOc2ccc(C(C)(C)C)cc2)cc(N(CC(=O)O)CC(=O)O)c1`: 99 to 101 °C; for `CCCCCN(CCCCC)C(=O)C(CCC(=O)OC)CS(=O)(=O)c1ccc(Cl)c(Cl)c1` (stereo not given): 52 to 54 °C; for `O=C(C=Cc1ccco1)c1cnc2sc3c(n12)CCCCC3`: 161 to 162 °C.

As for `Cc1ccc(-c2ccc3nc(C)c(C(=O)Nc4ccc(CN(C)C5CCOCC5)cc4)cc3c2)cc1`, the melting point fell in the range of 157 to 160 °C.

The compound `Cc1ccnc2c1C(=O)c1ccccc1C2=O` gave a melting point of 198 to 201 °C. As to `CCCCOc1cc2c(cc1C(=O)NC)CC(N(CCC)CCC)C2` (stereo not given), the melting point was in the range of 129 to 130 °C. Consider `CCOC(=O)c1ccc(OCC2(O)CCN(Cc3ccccc3)CC2)cc1`, for which the melting point came out at 100 °C. On to `Cc1c(NC(=O)c2ccc(-c3ccc4c(c3)CCO4)cc2)ccc2cc(CN3CCCC3)cnc12`, for which the melting point is 176 to 177 °C. To `Fc1ccc(C(c2ccncc2)C2CCCCC2)cc1` (stereo not given) belongs 78 to 81 °C; to `Cn1c(C(F)(F)F)cc(=O)n(-c2nc(Cl)c(O)cc2F)c1=O`, 189 to 192 °C.

Compound `CC(C)(C1CC1)C(O)(Cn1cncn1)c1ccc(Cl)cc1` (stereo not given) showed a melting point of 88 to 90 °C. Compound `CC(C)(C)c1csc(NC(=O)c2ccn3c(=O)c(/C=C/C(=O)O)c(N4CCC(O)CC4)nc3c2)n1` registered a melting point of 215 to 218 °C. As to `CCOCc1nc2c(N)nc3ccccc3c2n1CCCCS(=O)(=O)N(C)C`, the melting point lay in the range of 173 to 174 °C.

For the compound `O=C(NCCc1ccnc(-c2nc(=O)c3ccccc3s2)c1)c1ccccc1`, the melting point is 217 to 219 °C.

`CSC(=NC#N)NCCSCc1ccc(Nc2ccccc2)nc1` yielded a melting point of 180 to 182 °C. The compound `CC(C)CN1CCn2c1nc1[nH]cnc1c2=O` gave a melting point of 233 to 237 °C. The compound `NC(=S)Nc1ncccn1` registered a melting point of 262 to 264 °C. `COc1cccc(NS(=O)(=O)c2cccc(C=CC(=O)NO)c2)c1` returned a melting point of 137 °C.

Turning to `COc1ccc(CCN2C(=O)OC3(CCN(Cc4ccccc4)CC3)C2(C)O)cc1OC` (stereo not given), the melting point was in the range of 111 to 120 °C. To `CC1(CC(=O)Nc2ccccc2)OCCc2c1[nH]c1ccccc21` (stereo not given) belongs 205 to 208 °C; to `CCOC(=O)C(=O)N(C)c1cccccc1=O`, 70 to 71 °C; to `Nc1c(OCCCl)cc(Cl)cc1[N+](=O)[O-]`, 109 to 110 °C. To `CCc1c(OC)nc(OC)nc1C(C#N)c1cc(Cl)cc(Cl)c1` (stereo not given) belongs 121 to 122 °C; to `COc1cc2cn(C3CCCCC3)nc2cc1OC`, 100 to 103 °C. Consider `COc1ccc(CCc2cccc(C(=O)Nc3ccc(Cl)cc3)c2O)cc1`, for which the melting point came out at 141 °C.

Regarding `CN(C(=N)Nc1cccc2ccccc12)c1cccc2ccccc12`, the melting point fell in the range of 249 to 250 °C.

In the case of `CCOC(=O)C1=C(C(C)C)Nc2n[nH]cc2C1c1ccccc1[N+](=O)[O-]` (stereo not given), the melting point was 205 to 206 °C.

Compound `NC(=O)c1nc2cc(F)c([N+](=O)[O-])cc2[nH]c1=O` gave a melting point greater than 300 °C. Compound `CC(C)(C)c1cc2c(c(C(C)(C)C)c1)OC(=O)C2c1ccc(C(F)(F)F)cc1` (stereo not given) gave a melting point of 127 to 128 °C. The same measure for `CSC(=NCCSCc1ccccn1)NC#N`: 85 to 88 °C; for `COC(=O)c1cccc2c(SC(F)(F)F)c(OC)ccc12`: 93 to 94 °C; for `CCOC(=O)c1c(O)cc(C(F)(F)Cl)nc1C(F)(F)F`: 56.5 to 58.5 °C.

For `CC(C1CC1)N1C(=O)c2cc([N+](=O)[O-])cnc2C1=O` (stereo not given), the melting point was 96 to 99 °C. To `CN1CCN(c2nc(-c3ccccc3Cl)c3cc([N+](=O)[O-])ccc3n2)CC1` belongs 204 °C; to `O=C(CSc1ccncc1)C12CC3CC(CC(C3)C1)C2`, 114 to 115 °C. Turning to `O=C1OC(Cc2ccccc2)CN1c1ccccc1` (stereo not given), the melting point was 90 °C. `CCOC(=O)c1ccc(NC(=O)c2ccc(OCCCCc3ccccc3)cc2)c(O)c1` gave a melting point of 156 to 158 °C. To `CCOC(=O)c1nn(-c2ccc(Br)cc2)c(=O)c2c(N)scc12` belongs 198 to 200 °C; to `CCOC(=O)C(C)Oc1cc(N=C(C(N)=O)N2CCCC2)c(Cl)cc1Cl` (stereo not given), 160 to 163 °C; to `COc1cc(N=C(N)c2cccs2)ccc1N1CCN(C(=O)NCCCCC2CCSS2)CC1` (stereo not given), 186 °C.

The compound `O=C1C2=NCCCN2c2cc(Cl)ccc21` registered a melting point of 164 to 167 °C. Consider `COC(=O)/C=C/c1ccc2c(c1)nc(N)c1ncn(CC(C)(C)O)c12`, for which the melting point is greater than 250 °C. The same measure for `OC(CNC1=NCCN1)c1ccc(Cl)c(Cl)c1` (stereo not given): 148 °C; for `O=S(=O)(c1cc(Br)[nH]c1-c1ccc(Cl)cc1)C(F)(F)F`: 73 to 76 °C; for `CC(=NOCCO)c1ccc(-c2ccccc2)cc1`: 128 to 130 °C. The same measure for `CCOc1cc(C(=O)NC2CC(C)(C)NC(C)(C)C2)ccc1-c1cc2cc(Cl)c(Cl)cc2[nH]1`: 253 to 255 °C. To `Cc1cnc2c(c1)CCCC2NC(N)=S` (stereo not given) belongs 114 °C; to `O=C(NCc1ccccn1)c1cc(OCC(F)(F)F)ccc1OCC(F)(F)F`, 100 to 103 °C.

Compound `CCc1noc(C)c1C(=O)Nc1cccc(F)c1` gave a melting point of 99.5 to 101 °C. With `CC(C)n1nc(C#C[Si](C)(C)C)ccc1=O`, the melting point was in the range of 61 to 62.5 °C. The same measure for `CC1(C)O[C@@H]2[C@H](O1)[C@@H](CO)O[C@H]2n1cnc2c(N)nc(I)nc21`: 185 to 187 °C; for `C=CCSc1nc2cc(C)c(C)cc2[nH]1`: 119 to 120 °C. For `NC(=O)c1ccc(F)c(-c2cccc3cc(Cc4cccc(C(F)(F)F)c4)sc23)c1`, the melting point was 139 to 140 °C. To `COc1ccc(CCN2C=CC=C3C2=Nc2cc(C(F)(F)F)ccc2S(=O)(=O)N3C)cc1` belongs 43 to 44 °C; to `FC(F)(F)c1ccc(-c2cc(Oc3cncc4ccccc34)ncn2)cc1`, 206 to 211 °C; to `CCCCCCCCNC(=O)[C@@H]1C[C@H]1c1ccc([N+](=O)[O-])cc1` (relative stereo), 126 to 129 °C. `Cc1ccc(S(=O)(=O)OCCC2(OC3CCCCO3)CC2)cc1` (stereo not given): the melting point lay within 56 to 57 °C.

The compound `CC12C=CC(=O)C=C1CCC1C2=CCC2(C)C(C(=O)CCl)=CCC12` (stereo not given) registered a melting point of 136 to 138 °C.

`CCC(CC)c1ccc(Cl)c2nc3n(c12)CCCCN3c1cc(C)cc2c1ncn2C` registered a melting point of 259 to 260 °C. With `NC(=O)c1ccc(-c2cccc3cc(COc4cccc(C(F)(F)F)c4)sc23)cc1`, the melting point is 191 to 192 °C.

`O=C(O)C1=Cc2cc(Cl)c(Oc3ccc4cc(Br)ccc4c3)cc2OC1C(F)(F)F` (stereo not given): the melting point is 253 to 255 °C.

Turning to `Oc1ccc2ccccc2c1C1NCCc2ccccc21` (stereo not given), the melting point fell in the range of 148 to 150 °C. `CN1C(=O)[C@H](NC(=O)COc2ccccc2)N=C(c2ccccc2)c2ccccc21` yielded a melting point of 126 to 128 °C. To `CN1CCC(Oc2ccc(NC(=O)n3ccc4cc(Oc5cc(CC(N)=O)ncn5)ccc43)cc2C(F)(F)F)CC1` belongs 200 to 201 °C; to `CCCCCCCCCCCCCCC(F)(F)P(=O)(O)O`, 66 to 69 °C; to `N#CNC=Nc1ccc(-c2cc[nH]n2)cc1`, 223 to 224 °C. In turn, `Fc1cccc(F)c1-c1nnc(-c2c(F)cccc2F)nn1` displayed a melting point of 214 °C.

In the case of `CCOC(=O)c1cn(CCCl)c2cc(Cl)ccc2c1=O`, the melting point lay in the range of 208 to 210 °C.

For `COc1nc(-c2ccc(C(=O)O)cc2)cc2cccnc12`, the melting point was greater than 300 °C.

Turning to `CCn1nc(C)c(-c2ccc3c(c2)NC(=O)CO3)c1-c1ccc(F)cc1`, the melting point worked out at 161 °C. In turn, `Cc1nc(-n2cc(Cl)ccc2=O)sc1C(=O)NCc1ccccc1` showed a melting point of 173 to 174 °C. The same measure for `CCNC(=O)Nc1nc2cc(-c3cnc(N(C)C)nc3)cc(C(=O)NCC)n2n1`: 328 to 334 °C; for `O=C1CN(CCC(O)C2CCCCC2)C(=O)N1` (stereo not given): 97 to 99 °C; for `CCCNC(=O)NCCc1c[nH]c2ccc(OC)cc12`: 79 to 80 °C.

With `Cn1c(C(F)(F)F)cc(=O)n(-c2ccc3snc(COCC(=O)NS(C)(=O)=O)c3c2)c1=O`, the melting point was greater than 240 °C. Turning to `COCN1C(C)=C(C(=O)O)C(c2ccccc2)C(C(=O)OCOC(=O)C(C)(C)C)=C1C` (single isomer, unassigned; (+)), the melting point lay within 121 to 122 °C.

`CC(=O)NCCCc1nc2cnc3ccc(C)cc3c2n1C` gave a melting point of 213 to 215 °C. The same measure for `CCCc1ccc(S(=O)(=O)NN2CCOCC2)cc1`: 150 to 152 °C; for `N#CC1CN1C(=O)NC(=O)c1ccccc1` (stereo not given): 144 to 146 °C; for `CS(=O)(=O)c1ccc(C2=C(c3ccccc3)C(=NO)C2)cc1`: 146 to 148 °C. In turn, `O=C(O)c1[nH]c(=O)c2ccccc2c1-c1ccccc1` yielded a melting point greater than 300 °C.
